Measurements taken from publication PMC4858680, “A platinum-based hybrid drug design approach to circumvent acquired resistance to molecular targeted tyrosine kinase inhibitors” (Scientific Reports, 2016).
Numbering of substitutions follows the chain as printed. Read-outs that look alike come from different tables or passages of the source.

Columns and labels:
[1] = molecular target: KIT(A829P) (Homo sapiens, UniProt P10721, A829P); assay: biochemical; conditions: read-out: Percent control
[2] = molecular target: T1, EPHA4 (Homo sapiens, UniProt P54764); format: binding; conditions: 10 μM
T1 construct: purchased DiscoveRx KINOMEscan
T1 sequence (P54764 20-986): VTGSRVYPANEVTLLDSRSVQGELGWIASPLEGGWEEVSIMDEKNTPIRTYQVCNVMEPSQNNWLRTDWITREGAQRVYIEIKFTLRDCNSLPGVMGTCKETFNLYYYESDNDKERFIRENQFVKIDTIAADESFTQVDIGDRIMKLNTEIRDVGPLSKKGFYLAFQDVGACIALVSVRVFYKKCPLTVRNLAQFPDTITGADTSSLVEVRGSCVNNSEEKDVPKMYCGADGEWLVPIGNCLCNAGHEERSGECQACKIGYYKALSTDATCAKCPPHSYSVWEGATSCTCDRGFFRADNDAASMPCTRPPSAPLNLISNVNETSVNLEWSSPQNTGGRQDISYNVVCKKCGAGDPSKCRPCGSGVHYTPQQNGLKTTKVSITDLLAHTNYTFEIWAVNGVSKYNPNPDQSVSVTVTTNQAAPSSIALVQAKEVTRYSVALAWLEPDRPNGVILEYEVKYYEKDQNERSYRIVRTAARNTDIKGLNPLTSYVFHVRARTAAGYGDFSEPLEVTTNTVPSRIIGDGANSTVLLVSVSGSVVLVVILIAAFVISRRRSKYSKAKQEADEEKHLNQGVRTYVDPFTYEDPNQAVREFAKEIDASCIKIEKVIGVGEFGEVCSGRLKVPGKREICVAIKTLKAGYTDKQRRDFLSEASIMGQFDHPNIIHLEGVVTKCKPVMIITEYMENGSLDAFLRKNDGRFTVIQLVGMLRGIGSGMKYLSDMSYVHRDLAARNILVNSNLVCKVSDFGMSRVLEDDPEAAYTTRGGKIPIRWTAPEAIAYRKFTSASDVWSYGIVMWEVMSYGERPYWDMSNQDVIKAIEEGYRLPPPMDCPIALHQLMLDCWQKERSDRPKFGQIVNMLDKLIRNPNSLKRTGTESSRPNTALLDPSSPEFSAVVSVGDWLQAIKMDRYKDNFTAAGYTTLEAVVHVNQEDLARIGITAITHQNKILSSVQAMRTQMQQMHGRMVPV

[3] = molecular target: T2, AXL (Homo sapiens, UniProt P30530); conditions: 10 μM
T2 sequence (P30530 26-894): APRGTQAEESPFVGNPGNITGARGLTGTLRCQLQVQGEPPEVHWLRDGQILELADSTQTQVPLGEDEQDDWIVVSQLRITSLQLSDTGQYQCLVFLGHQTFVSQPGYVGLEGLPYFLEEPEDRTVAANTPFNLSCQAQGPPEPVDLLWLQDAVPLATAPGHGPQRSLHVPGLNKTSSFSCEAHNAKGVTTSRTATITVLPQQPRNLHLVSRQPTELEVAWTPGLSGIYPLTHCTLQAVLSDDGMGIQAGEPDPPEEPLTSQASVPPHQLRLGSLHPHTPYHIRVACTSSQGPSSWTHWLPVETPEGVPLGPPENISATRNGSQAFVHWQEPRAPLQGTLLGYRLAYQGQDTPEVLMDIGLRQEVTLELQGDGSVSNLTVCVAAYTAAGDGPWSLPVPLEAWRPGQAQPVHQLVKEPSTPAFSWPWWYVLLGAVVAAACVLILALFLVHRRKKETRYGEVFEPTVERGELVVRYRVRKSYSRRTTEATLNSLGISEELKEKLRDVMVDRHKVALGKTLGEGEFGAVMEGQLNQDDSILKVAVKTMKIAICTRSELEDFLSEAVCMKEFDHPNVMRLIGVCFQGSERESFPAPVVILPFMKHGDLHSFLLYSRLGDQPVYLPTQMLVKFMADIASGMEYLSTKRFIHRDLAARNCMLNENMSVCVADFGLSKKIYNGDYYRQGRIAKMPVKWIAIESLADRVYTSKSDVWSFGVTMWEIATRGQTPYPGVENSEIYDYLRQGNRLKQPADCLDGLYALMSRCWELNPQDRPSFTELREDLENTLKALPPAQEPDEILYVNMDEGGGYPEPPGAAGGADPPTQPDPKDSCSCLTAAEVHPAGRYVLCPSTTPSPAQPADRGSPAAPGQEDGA

[4] = molecular target: EPHA5 (Homo sapiens, UniProt P54756); conditions: 10 μM
EPHA5, sequence (P54756 25-1037): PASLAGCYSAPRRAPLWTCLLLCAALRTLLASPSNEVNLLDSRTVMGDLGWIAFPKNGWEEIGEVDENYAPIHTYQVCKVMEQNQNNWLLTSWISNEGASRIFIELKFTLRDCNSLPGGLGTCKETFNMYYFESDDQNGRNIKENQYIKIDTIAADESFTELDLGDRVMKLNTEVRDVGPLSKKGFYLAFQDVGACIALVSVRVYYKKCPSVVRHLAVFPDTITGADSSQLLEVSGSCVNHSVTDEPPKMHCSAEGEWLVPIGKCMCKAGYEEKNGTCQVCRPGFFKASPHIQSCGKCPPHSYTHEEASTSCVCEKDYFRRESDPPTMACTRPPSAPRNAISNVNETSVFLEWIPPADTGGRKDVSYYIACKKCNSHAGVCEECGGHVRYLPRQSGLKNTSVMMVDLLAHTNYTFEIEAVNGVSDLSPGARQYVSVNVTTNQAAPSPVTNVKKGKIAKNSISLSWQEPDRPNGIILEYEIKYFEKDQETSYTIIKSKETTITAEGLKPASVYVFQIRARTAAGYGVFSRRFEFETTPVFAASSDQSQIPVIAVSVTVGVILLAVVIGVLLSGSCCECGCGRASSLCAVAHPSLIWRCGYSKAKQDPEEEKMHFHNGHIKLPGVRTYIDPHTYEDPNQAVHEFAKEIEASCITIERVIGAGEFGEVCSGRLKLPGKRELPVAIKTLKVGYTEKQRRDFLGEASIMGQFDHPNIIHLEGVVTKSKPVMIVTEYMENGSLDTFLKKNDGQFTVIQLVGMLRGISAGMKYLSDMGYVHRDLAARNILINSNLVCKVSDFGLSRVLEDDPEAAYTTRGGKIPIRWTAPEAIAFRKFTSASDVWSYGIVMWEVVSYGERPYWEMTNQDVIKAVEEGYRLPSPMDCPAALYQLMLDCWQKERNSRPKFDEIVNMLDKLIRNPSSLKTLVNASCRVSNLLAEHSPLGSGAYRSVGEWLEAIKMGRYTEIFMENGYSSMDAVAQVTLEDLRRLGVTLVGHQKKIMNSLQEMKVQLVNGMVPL

[5] = molecular target: T3, FLT3 (Homo sapiens, UniProt P36888)
T3 sequence (P36888 27-993): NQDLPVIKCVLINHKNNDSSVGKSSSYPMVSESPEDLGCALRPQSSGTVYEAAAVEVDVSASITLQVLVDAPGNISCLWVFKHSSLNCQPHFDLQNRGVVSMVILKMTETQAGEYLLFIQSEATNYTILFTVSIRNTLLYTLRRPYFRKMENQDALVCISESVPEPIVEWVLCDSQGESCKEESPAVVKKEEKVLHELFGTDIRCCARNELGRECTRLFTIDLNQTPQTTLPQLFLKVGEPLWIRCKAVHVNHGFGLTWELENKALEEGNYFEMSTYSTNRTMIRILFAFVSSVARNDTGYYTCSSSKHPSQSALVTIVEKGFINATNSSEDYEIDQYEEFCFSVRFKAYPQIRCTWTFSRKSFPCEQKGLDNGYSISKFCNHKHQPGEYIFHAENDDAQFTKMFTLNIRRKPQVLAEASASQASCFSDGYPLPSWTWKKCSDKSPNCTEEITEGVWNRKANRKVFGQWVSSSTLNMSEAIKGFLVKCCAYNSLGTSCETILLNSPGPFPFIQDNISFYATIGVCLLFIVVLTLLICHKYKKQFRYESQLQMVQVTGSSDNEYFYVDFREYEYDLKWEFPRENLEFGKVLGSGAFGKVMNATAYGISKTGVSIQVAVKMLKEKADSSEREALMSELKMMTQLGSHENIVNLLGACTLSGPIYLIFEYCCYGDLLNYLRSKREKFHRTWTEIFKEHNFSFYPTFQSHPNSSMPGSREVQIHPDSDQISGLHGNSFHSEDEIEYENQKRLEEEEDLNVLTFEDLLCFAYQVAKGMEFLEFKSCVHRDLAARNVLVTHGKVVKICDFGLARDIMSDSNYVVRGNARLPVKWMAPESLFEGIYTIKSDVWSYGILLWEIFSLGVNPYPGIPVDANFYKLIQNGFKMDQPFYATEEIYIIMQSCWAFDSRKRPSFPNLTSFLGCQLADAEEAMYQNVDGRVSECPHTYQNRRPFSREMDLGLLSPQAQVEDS

[6] = molecular target: T4, FLT3(D835Y) (Homo sapiens, UniProt P36888, D835Y)
T4 sequence (P36888 27-993 D835Y): T3 sequence (P36888 27-993) with D809Y

[7] = molecular target: T5, DDR1 (Homo sapiens, UniProt Q08345); format: binding; conditions: for Percent control: 10 μM
T5 construct: purchased DiscoveRx KINOMEscan
T5 sequence (Q08345 19-913): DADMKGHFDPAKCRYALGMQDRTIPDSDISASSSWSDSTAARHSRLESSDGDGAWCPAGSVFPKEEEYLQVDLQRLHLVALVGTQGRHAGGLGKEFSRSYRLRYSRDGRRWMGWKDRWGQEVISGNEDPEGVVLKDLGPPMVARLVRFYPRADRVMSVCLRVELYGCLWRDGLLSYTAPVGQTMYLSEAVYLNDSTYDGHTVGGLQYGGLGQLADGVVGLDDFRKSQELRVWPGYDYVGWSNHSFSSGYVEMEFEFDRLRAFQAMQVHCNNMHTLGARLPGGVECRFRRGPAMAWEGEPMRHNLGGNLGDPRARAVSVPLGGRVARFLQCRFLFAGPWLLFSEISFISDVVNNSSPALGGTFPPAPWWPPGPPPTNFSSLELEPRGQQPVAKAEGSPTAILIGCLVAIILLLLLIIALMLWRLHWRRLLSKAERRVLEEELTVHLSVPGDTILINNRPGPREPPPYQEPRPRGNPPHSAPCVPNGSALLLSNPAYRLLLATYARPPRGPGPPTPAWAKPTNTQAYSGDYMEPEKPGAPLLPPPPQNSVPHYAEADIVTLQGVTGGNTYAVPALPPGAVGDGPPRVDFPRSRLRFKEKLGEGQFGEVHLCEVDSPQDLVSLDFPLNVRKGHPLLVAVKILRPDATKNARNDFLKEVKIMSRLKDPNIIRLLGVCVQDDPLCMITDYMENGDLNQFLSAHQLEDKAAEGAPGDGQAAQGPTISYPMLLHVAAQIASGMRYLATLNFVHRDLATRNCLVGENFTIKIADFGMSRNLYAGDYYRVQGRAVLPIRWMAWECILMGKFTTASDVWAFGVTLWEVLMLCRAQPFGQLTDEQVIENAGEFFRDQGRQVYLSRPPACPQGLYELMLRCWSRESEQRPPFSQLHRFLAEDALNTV

KIT(A829P), sequence (P10721 26-976 A829P): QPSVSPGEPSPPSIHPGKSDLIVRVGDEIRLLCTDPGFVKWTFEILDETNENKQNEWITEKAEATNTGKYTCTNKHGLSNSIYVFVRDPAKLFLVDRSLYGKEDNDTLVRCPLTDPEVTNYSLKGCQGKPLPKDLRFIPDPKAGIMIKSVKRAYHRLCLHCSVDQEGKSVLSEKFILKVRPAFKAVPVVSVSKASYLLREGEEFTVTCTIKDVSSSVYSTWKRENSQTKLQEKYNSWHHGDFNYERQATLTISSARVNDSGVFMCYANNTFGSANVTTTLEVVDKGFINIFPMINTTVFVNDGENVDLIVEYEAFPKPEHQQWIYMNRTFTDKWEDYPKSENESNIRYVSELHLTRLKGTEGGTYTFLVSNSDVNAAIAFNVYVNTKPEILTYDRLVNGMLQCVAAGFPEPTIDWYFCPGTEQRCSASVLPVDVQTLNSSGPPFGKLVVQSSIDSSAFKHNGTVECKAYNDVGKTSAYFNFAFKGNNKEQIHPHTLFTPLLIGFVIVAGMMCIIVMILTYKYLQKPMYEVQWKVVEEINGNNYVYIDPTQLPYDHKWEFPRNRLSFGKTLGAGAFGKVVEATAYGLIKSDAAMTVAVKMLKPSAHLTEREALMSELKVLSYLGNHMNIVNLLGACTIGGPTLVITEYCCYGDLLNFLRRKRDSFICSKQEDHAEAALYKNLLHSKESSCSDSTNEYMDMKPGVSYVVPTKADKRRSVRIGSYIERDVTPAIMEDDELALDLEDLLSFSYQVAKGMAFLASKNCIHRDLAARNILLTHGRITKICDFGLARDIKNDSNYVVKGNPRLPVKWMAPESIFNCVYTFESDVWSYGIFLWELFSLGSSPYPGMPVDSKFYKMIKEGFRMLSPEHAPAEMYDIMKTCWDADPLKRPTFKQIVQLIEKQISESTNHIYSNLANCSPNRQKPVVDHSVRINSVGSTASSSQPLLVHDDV

`C#Cc1cccc(Nc2ncnc3cc(OCCOC)c(OCCOC)cc23)c1` [Erlotinib] was tested, and the remaining activity at 10 µM [1] was 100%.
`Cc1ccc(NC(=O)c2ccc(CN3CCN(C)CC3)cc2)cc1Nc1nccc(-c2cccnc2)[n+]1[Pt-2]1([Cl])[NH2+]C2CCCCC2[NH2+]1` (stereo not drawn) [1b, oxaliplatin-imatinib] was tested, and the Percent control [2] was 88%, the Percent control [3] was 100% and the Percent control [4] was 100%. The Percent control ([5]; FLT3, 10 μM) was 88% and the Percent control ([6]; FLT3(D835Y), 10 μM) was 81%.
Compound `COc1cc2c(Nc3ccc(Br)cc3F)ncnc2cc1OCC1CCN(C)CC1` [Vandetanib, reference compound] has a remaining binding at 10 µM ([7]; read-out: Percent control) of 0.1% and a remaining activity at 10 µM [1] of 0.3%.
For `COc1cc2c(Nc3ccc(Br)cc3F)[n+]([Pt-2]3([Cl])[NH2+]C4CCCCC4[NH2+]3)cnc2cc1OCC1CCN(C)CC1` (stereo not drawn) [3b, oxaliplatin-vandetanib], the Percent control [7] was 0.3%, the Percent control [3] was 19% and the Percent control [4] was 78%. The Percent control [5] was 49 and the Percent control [6] was 46.
In the case of `C#Cc1cccc(Nc2c3cc(OCCOC)c(OCCOC)cc3nc[n+]2[Pt@SP2-2]([NH3+])([NH3+])[Cl])c1` [2a, cisplatin-erlotinib], the Percent control [7] is reported as 74%, the Percent control [2] is reported as 79% and the Percent control [3] is reported as 93%. It also gave a Percent control [4] of 100%, a Percent control [5] of 75 and a Percent control [6] of 21.
`Cc1ccc(NC(=O)c2ccc(CN3CCN(C)CC3)cc2)cc1Nc1nccc(-c2cccnc2)n1` [Imatinib, reference compound] was tested, and the Percent control [2] was 100%, the Percent control [3] was 100% and the Percent control ([5]; FLT3, 10 μM) was 100%. The Percent control ([6]; FLT3(D835Y), 10 μM) was 100% and the remaining activity at 10 µM [1] was 0.1%.
